ChEMBL document CHEMBL1152560, “Substituted 2-arylbenzothiazoles as kinase inhibitors: hit-to-lead optimization” (Bioorg Med Chem, 2009)

Tests used:
[1] = molecular target: Ribosomal protein S6 kinase alpha-1 (Homo sapiens) (UniProt Q15418); test: Residual activity of RPS6KA1 at 1 uM by microplate scintillation counting
[2] = molecular target: Serine/threonine-protein kinase WNK3 (Homo sapiens) (UniProt Q9BYP7); test: Residual activity of WNK3 at 10 uM by microplate scintillation counting
[3] = molecular target: Ephrin type-A receptor 2 (Homo sapiens) (UniProt P29317); test: Residual activity of EPHA2 at 10 uM by microplate scintillation counting
Sequence of Ephrin type-A receptor 2 (Homo sapiens) (P29317 whole entry): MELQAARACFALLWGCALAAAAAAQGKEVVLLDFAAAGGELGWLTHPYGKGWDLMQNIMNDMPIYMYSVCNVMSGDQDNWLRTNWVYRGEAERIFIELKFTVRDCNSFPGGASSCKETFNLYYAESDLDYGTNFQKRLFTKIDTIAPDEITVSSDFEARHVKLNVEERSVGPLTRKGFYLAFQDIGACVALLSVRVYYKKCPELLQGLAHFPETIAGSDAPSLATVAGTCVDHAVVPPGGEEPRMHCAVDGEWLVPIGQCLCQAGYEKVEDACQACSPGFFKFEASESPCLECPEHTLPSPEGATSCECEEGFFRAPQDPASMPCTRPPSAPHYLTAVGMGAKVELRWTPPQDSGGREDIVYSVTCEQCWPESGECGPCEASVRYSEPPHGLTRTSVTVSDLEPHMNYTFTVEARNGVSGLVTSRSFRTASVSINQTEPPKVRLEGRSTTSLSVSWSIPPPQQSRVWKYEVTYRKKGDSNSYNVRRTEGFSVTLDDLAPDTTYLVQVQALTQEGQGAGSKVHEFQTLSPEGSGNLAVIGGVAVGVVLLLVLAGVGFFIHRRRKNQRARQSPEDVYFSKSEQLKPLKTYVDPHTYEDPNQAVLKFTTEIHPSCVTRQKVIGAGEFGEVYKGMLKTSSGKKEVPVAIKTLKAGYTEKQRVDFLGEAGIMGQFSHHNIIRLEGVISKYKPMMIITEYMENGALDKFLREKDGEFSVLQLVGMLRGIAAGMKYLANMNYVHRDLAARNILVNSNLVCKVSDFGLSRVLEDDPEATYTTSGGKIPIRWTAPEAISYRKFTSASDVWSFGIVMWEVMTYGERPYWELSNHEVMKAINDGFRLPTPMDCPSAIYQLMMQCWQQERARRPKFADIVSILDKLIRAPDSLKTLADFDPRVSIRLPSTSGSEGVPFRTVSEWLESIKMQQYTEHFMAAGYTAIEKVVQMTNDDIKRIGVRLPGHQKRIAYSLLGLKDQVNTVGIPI

[4] = molecular target: Epidermal growth factor receptor (Homo sapiens, UniProt P00533); test: Residual activity of wild type EGF-R at 10 uM by microplate scintillation counting
Sequence of Epidermal growth factor receptor (P00533 whole entry, the tested form may be a part): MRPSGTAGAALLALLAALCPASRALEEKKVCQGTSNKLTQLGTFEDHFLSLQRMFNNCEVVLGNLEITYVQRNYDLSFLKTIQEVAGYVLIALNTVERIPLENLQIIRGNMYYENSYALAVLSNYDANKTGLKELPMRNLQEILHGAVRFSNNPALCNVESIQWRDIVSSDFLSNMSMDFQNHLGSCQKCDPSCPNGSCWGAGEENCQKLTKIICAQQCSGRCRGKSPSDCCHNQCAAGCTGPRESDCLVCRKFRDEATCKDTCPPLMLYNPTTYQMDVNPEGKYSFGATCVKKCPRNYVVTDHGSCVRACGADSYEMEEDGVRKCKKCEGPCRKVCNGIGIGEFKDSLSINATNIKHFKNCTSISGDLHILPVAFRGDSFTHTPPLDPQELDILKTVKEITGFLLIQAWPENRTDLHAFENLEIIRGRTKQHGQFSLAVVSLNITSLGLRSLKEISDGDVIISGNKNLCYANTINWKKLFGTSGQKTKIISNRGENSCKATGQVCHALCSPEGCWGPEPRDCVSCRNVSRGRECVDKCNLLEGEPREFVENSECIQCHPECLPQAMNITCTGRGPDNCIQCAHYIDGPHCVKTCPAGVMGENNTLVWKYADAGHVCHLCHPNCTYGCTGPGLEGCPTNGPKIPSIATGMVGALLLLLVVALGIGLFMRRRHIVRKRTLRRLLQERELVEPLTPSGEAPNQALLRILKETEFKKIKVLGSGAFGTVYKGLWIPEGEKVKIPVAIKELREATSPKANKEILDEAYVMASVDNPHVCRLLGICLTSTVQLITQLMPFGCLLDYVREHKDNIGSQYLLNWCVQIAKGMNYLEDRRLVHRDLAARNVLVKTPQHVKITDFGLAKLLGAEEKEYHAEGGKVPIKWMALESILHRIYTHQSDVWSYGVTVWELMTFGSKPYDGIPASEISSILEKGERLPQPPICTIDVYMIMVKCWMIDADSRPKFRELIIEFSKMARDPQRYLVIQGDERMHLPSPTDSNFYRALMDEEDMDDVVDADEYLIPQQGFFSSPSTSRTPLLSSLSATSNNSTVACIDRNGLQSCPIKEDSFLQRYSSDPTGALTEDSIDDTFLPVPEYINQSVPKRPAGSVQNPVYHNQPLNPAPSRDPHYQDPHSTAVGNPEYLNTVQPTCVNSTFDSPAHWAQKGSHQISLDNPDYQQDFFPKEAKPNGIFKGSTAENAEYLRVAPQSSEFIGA

[5] = molecular target: T1, Discoidin domain-containing receptor 2 (Homo sapiens) (UniProt Q16832); test: Residual activity of DDR2 at 0.1 uM by microplate scintillation counting
T1 sequence (whole entry): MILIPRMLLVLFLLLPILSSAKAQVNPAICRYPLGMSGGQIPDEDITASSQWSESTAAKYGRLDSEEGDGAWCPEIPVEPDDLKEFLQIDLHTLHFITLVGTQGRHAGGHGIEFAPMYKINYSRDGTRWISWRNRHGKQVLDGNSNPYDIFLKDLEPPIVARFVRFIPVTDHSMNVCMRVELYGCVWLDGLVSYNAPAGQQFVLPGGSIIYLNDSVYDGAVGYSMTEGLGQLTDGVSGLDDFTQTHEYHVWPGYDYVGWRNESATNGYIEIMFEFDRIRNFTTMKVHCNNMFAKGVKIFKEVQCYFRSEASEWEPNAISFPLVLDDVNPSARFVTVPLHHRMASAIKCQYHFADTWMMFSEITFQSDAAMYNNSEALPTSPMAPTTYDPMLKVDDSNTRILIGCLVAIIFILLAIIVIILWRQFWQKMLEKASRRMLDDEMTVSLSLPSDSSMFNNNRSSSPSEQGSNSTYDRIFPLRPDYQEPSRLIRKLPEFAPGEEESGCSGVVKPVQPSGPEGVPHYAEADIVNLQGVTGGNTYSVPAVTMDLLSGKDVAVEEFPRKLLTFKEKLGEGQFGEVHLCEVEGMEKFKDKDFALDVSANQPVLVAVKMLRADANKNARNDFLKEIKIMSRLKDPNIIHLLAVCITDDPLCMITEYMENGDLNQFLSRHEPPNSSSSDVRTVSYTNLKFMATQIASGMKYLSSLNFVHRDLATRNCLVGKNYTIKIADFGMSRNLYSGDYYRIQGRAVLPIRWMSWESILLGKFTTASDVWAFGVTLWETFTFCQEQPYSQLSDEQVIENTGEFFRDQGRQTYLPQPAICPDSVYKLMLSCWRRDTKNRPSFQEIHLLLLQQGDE

[6] = molecular target: Serine/threonine-protein kinase PAK 1 (Homo sapiens) (UniProt Q13153); test: Residual activity of PAK1 at 10 uM by microplate scintillation counting
Sequence of Serine/threonine-protein kinase PAK 1 (Homo sapiens) (Q13153 whole entry): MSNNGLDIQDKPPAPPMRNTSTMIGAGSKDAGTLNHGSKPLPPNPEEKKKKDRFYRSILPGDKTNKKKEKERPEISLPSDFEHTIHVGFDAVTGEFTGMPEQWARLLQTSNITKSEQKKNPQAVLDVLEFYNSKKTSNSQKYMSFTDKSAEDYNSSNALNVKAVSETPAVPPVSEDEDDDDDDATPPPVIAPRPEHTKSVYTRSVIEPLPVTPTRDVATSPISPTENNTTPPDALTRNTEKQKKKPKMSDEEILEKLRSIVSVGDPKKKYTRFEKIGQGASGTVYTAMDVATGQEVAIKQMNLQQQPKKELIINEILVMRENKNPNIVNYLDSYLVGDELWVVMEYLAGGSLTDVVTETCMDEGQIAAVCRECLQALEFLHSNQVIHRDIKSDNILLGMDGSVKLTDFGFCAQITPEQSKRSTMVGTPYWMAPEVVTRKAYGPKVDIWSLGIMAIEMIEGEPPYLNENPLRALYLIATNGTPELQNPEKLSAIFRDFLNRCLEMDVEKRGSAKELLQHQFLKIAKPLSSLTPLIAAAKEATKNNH

[7] = molecular target: Calcium/calmodulin-dependent protein kinase type II subunit beta (Homo sapiens) (UniProt Q13554); test: Residual activity of CAMK2B at 0.1 uM by microplate scintillation counting
Sequence of Calcium/calmodulin-dependent protein kinase type II subunit beta (Homo sapiens) (Q13554 whole entry): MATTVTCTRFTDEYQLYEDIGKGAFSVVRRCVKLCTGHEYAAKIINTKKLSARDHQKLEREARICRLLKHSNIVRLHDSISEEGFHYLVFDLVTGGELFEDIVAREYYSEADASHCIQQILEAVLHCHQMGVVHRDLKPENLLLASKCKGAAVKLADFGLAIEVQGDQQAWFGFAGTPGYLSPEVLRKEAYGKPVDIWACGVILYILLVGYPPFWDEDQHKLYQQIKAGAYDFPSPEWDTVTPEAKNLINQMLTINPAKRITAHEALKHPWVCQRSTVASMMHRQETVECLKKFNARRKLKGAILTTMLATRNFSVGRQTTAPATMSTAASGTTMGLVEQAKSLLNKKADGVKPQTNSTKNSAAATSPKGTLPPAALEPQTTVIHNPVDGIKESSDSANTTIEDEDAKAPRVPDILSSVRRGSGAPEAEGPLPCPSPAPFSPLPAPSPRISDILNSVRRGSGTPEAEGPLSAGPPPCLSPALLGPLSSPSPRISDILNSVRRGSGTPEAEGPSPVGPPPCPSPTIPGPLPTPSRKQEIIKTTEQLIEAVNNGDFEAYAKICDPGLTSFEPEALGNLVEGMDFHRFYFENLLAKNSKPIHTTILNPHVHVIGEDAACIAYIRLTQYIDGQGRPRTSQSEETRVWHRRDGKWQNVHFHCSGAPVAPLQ

[8] = molecular target: T2, Activin receptor type-1B (Homo sapiens) (UniProt P36896); test: Residual activity of ACVR1B at 10 uM by microplate scintillation counting
T2 sequence (whole entry): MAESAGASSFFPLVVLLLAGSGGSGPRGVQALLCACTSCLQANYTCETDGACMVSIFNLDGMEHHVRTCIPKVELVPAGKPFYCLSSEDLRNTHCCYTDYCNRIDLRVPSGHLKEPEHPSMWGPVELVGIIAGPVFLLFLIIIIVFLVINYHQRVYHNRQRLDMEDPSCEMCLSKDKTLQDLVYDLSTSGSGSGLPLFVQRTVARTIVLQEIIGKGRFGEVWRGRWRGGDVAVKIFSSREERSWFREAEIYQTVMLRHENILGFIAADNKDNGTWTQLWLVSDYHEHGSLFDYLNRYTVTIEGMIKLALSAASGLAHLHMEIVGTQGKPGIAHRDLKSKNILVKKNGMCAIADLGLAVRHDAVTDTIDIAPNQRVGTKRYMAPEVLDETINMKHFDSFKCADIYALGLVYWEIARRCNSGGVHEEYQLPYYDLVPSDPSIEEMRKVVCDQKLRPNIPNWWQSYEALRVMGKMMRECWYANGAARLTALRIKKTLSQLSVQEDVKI

[9] = molecular target: T3, Serine/threonine-protein kinase PLK4 (Homo sapiens) (UniProt O00444); test: Residual activity of SAK at 1 uM by microplate scintillation counting
T3 sequence (whole entry): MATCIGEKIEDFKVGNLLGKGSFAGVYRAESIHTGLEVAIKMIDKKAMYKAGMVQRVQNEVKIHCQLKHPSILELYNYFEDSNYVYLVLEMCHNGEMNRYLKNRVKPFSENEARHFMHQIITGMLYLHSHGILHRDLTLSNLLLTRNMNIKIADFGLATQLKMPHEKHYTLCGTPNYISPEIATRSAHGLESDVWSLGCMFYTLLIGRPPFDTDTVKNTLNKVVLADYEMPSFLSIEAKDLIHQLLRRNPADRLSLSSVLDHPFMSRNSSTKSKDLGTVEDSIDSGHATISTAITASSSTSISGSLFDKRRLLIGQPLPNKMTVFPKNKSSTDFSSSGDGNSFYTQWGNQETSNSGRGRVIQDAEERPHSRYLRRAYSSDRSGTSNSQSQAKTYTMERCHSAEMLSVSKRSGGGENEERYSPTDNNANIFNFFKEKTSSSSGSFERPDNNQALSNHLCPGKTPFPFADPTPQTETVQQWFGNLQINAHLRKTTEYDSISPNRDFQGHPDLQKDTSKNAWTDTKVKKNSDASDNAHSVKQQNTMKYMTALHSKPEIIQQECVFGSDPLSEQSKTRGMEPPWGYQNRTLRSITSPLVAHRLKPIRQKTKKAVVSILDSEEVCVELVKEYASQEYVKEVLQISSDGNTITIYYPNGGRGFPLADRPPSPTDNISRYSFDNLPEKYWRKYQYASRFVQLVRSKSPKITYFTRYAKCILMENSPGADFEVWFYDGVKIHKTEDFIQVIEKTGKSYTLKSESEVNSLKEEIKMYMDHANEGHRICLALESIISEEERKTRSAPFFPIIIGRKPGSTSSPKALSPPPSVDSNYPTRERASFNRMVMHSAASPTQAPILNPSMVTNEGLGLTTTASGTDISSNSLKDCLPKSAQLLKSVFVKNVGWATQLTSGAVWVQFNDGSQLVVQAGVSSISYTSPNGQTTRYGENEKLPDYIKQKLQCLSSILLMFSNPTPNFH

Sequence of Ribosomal protein S6 kinase alpha-1 (Homo sapiens) (Q15418 whole entry): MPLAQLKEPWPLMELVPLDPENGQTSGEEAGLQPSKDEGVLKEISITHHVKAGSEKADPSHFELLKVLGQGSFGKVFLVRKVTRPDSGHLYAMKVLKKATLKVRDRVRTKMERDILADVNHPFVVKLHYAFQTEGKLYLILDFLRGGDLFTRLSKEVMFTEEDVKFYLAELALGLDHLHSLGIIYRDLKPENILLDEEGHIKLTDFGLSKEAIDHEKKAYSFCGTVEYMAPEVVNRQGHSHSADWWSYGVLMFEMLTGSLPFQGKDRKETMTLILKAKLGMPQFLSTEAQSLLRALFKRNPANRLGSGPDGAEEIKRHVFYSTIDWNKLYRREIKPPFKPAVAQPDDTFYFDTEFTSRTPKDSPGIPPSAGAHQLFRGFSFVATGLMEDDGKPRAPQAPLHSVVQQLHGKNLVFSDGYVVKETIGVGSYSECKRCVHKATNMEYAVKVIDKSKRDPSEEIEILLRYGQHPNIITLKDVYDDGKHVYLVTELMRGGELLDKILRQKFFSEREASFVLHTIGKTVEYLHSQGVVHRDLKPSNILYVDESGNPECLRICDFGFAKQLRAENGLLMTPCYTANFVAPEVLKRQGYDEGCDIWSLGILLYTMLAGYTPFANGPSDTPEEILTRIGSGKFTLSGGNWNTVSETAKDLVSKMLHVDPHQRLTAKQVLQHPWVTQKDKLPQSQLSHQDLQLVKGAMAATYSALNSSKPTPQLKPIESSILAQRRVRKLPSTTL

| residual activity [1] [%] | residual activity [2] [%] | residual activity [3] [%] | residual activity [4] [%] | residual activity [5] [%] | residual activity [6] [%] | residual activity [7] [%] | residual activity [8] [%] | residual activity [9] [%] | SMILES |
| --- | --- | --- | --- | --- | --- | --- | --- | --- | --- |
| 74 | 21 | 187 | 67 | 97 | 69 | 73 | 104 | 19 | COc1cc2c(Oc3ccc(-c4nc5ccccc5s4)cc3)ncnc2cc1OCCCN1CCCC1 |
| 88 | 39 | 73 | 48 | 93 | 57 | 65 | 109 | 26 | COc1cc2c(Oc3ccc(-c4nc5ccccc5s4)cc3F)ncnc2cc1OCCCN1CCN(C)CC1 |
| 78 | 23 | 190 | 52 | 88 | 68 | 100 | 93 | 10 | COc1cc2c(Oc3ccc(-c4nc5ccccc5s4)cc3)ncnc2cc1OCCCN1CCN(C)CC1 |
